Test results from paper PMC8945686, “Anticancer Effects with Molecular Docking Confirmation of Newly Synthesized Isatin Sulfonamide Molecular Hybrid Derivatives against Hepatic Cancer Cell Lines” (Biomedicines, 2022).
“And” between values parts separate entries of the source, which are not always exact repeats. Equal values may be shown once.

Legend:
glutathione (GSH) = assay: GSH level in HepG2 cell lysate (DTNB method); format: cell-based, human; details: HepG2 treated at IC50, 48 h
Method: (§1) As previously described, with little modification, HepG2 cells were cultured in T25 flask until they reached 30% confluency. […] After treatment, cells were washed by PBS, trypsinized and centrifuged at 10,000 rpm. The formed pellets were washed twice with PBS and lysed in 1 mL ice-cold radio immunoprecipitation assay (RIPA) lysis buffer (50 mM Tris-HCl, pH 8.0, 150 mM NaCl, 1% Triton X-100, 0.5% sodium deoxycholate, 0.1% sodium dodecyl sulfate) and kept on ice for 20 min. Then, the mixture was centrifuged at 15,000 rpm for 15 min to remove any cell debris. The cell lysate was aliquoted and stored at −80 °C for determination of protein using Pierce BCA Protein Assay Kit (Thermo Fisher Scientific, Waltham/Boston, USA) according to manufacturer’s recommendations and determination of other biochemical parameters including EGFR, urokinase Plasminogen Activator (uPA), B-Cell Lymphoma-2 (Bcl-2), heparanase, and oxidative stress markers (glutathione; GSH and malonaldehyde; MDA).
Glutathione levels were determined using GSH Biodiagnostics kit (Cairo, Egypt). The method is based on the reduction of 5,5′dithiobis (2-nitrobenzoic acid) (DTNB) with glutathione (GSH) to produce a yellow compound. The reduced chromogen is directly proportional to GSH concentration and its absorbance was measured at 405 nm.

malonaldehyde (MDA) = assay: MDA level in HepG2 cell lysate (TBA method); format: cell-based, human; details: HepG2 treated at IC50, 48 h
Method: as §1
Levels of MDA, the marker of lipid peroxidation, were measured by thiobarbituric acid (TBA) method. TBA reacts with MDA in an acidic medium at temperature of 95 °C for 30 min to form colored thiobarbituric acid reactive (TBAR) product, the absorbance of which was measured at 534 nm. The MDA kit was purchased from Biodiagnostics, Cairo, Egypt.

HepG2 cells = assay: Cell cycle analysis by flow cytometry (PI staining); format: cell-based, human; details: for %Cell Cycle Arrest/Phase %G0-G1 / %Cell Cycle Arrest/Phase %G2-M / %Cell Cycle Arrest/Phase %S / %Cell Cycle Arrest/Phase %pre-G1: HepG2, 5 µM, 48 h; for G2-M arrest, fold higher compared to the negative control: HepG2, negative control 7.1%
Method: In 6-well plate, HepG2 (1 × 10^5 cells per well) were treated with either (0.1% DMSO) vehicle or 5 μM of 3a, 4b, and 4c compounds. After 48 h incubation, cells were harvested and fixed for 12 h using ice-cold 70% ethanol at 4 °C. Ethanol was removed and cells were washed by PBS and incubated for 30 min at 37 °C in 0.5 mL of PBS containing 1 mg/mL RNase. Then, cells were stained for 30 min with PI in the dark and the DNA content was determined using flow cytometer.

[1] = test system: urokinase Plasminogen Activator (uPA); assay: uPA level in HepG2 cell lysate (ELISA); format: cell-based, human; details: HepG2 treated at IC50, 48 h
Method: as §1
(§2) Levels of EGFR [37] and heparanase in cell lysate were investigated using commercially available enzyme-linked immunosorbent assay (ELISA) kits supplied by Abcam (Cat. No. ab269558, ab256401, respectively). Levels of uPA [39] were measured using ELISA kit supplied by Creative Diagnostics (New York, USA, Cat. No. DEIA1630). Bcl-2 levels were determined using ELISA kit supplied by Zymed Laboratories, Carlsbad, California (Cat. No. 99-0042). Briefly, standards and samples were added to corresponding 96-well plate coated with suitable antibody. After the washing step, biotinylated anti-human antibody was added to each well. After washing away unbound biotinylated antibody, horseradish peroxidase (HRP)-conjugated streptavidin was pipetted into each well. A peroxidase substrate solution was added to all wells, after washing, and the color developed was proportionate to the amount of EGFR bound. Finally, the stop solution was added and the color intensity was measured at 450 nm.

mice = assay: In vivo acute (14-day) oral toxicity study; details: for S.ALT / S.AST / S.Creatinine / S.D.Bilirubin / S.T.Bilirubin / S.Urea: 14 days after single dose, doxorubicin 15 mg/kg I.P; for S.ALT / S.AST / S.Creatinine / S.D.Bilirubin / S.T.Bilirubin / S.Urea / Histopathology of liver and kidney tissues (H and E) versus control groups / Kidney histology (H and E photomicrographs) / Liver histology (H and E photomicrographs): compounds 250 mg/kg oral; for Histopathology of liver and kidney tissues (H and E) versus control groups / Kidney histology (H and E photomicrographs) / Liver histology (H and E photomicrographs) / Physical or abnormal changes (body weight, skin, fur, eyes, behavior, overall appearance): 14 days; for Histopathology of liver and kidney tissues (H and E) versus control groups / Kidney histology (H and E photomicrographs) / Liver histology (H and E photomicrographs): Dox 15 mg/kg i.p.; for Survival over the treatment period (14 days) / Physical or abnormal changes (body weight, skin, fur, eyes, behavior, overall appearance): single acute oral dose of 250 mg/kg
Text: GPower 3.0.10 software was used to estimate the sample size needed for the experiment and the number of mice per group but, according to the Organization for Economic Cooperation and Development (OECD) Test Guidelines No. 407 (OECD, 2008 and updated 2017) and under the International Academy of Science’s Guide for the Care and Use of Laboratory Animals, as well as the ARRIVE guidelines, to use the least number of mice per group for the acute single dose oral toxicity test.
Animals were divided randomly into nine groups (5 animals per group). Before the experiment, the body weight (BW) of all mice was recorded. All mice were made to fast for 24 h and treated once (day zero) then carefully monitored for 14 days.
Normal control group: mice received saline orally once;
Negative control group: mice received vehicle (DMSO) orally once;
Positive control group: mice were injected with Dox (15 mg/kg BW, i.p.) once.
Isatin-sulfonamide-derivative-compound-treated groups (2a, 3a, 3d and 4b, 4c and 4d) of mice received 250 mg/kg BW of each orally once.
The animals’ BWs were recorded at the end of the 14 days of observation. Blood samples were collected from the retro-orbital plexus and allowed to clot. Sera were prepared by centrifugation at 4000 rpm for 15 min and then kept frozen at − 80 °C for liver and kidney function tests (LFTs and KFTs). Thereafter, mice were deprived of food overnight, euthanized, and sacrificed by cervical dislocation. Liver and kidney tissues were collected, washed with ice-cold saline, and weighed. Excised weighed livers and kidneys were fixed in a suitable buffer for histological examination.
Liver and kidney tissues were fixed in 10% neutral buffered formaldehyde overnight and then embedded in paraffin, […] in serial grades of alcohols, cleared in xylene, and were subjected to […], where 4 μm thick tissue sections were cut by rotatory microtome. Tissue sections were stained with hematoxylin and eosin (H and E) for histological examination using full HD light microscopic imaging system (Leica Microsystems GmbH, Wetzlar, Germany). Standard procedures for sample fixation and staining were done as previously described.

[2] = test system: B-Cell Lymphoma-2 (Bcl-2); assay: Bcl-2 level in HepG2 cell lysate (ELISA); format: cell-based, human; details: HepG2 treated at IC50, 48 h
Method: as §1, §2

| Structure (SMILES) | GSH level in cell lysate (glutathione (GSH)) | MDA level in cell lysate (malonaldehyde (MDA)) | %Cell Cycle Arrest/Phase %G0-G1 (HepG2 cells) | %Cell Cycle Arrest/Phase %G2-M (HepG2 cells) | %Cell Cycle Arrest/Phase %S (HepG2 cells) | %Cell Cycle Arrest/Phase %pre-G1 (HepG2 cells) | G2-M arrest, fold higher compared to the negative control (HepG2 cells) | uPA level in cell lysate [1] | S.ALT (mice) | S.AST (mice) | S.Creatinine (mice) | S.D.Bilirubin (mice) | S.T.Bilirubin (mice) | S.Urea (mice) | Histopathology of liver and kidney tissues (H and E) versus control groups (mice) | Kidney histology (H and E photomicrographs) (mice) | Liver histology (H and E photomicrographs) (mice) | Survival over the treatment period (14 days) (mice) | Physical or abnormal changes (body weight, skin, fur, eyes, behavior, overall appearance) (mice) | Bcl-2 level in cell lysate [2] | further results |
| --- | --- | --- | --- | --- | --- | --- | --- | --- | --- | --- | --- | --- | --- | --- | --- | --- | --- | --- | --- | --- | --- |
| Cc1ccc(C(=O)CC2(O)C(=O)Nc3ccc(S(=O)(=O)N4CCCCC4)cc32)cc1 (stereo not drawn) [Compound 3a, 3-hydroxy-3-(2-oxo-2-(p-tolyl)ethyl)-5-(piperidin-1-ylsulfonyl)indolin-2-one] | 1.6 ± 0.7 µmol/mg protein | 2.0 ± 0.5 µmol/mg protein and 2.0 ± 0.5 ^a*^,b* µmol/mg protein | 31.57% | 44.85% | 23.58% | 46.29% | 6.32 fold | 1258 ± 15 nmol/mg protein and 1258 ± 15 ^a* nmol/mg protein | 27.05 ± 0.81 ^^ U/L | 36.78 ± 0.33 ^^ U/L | 0.82 ± 0.03 ^^ mg/dL | 0.16 ± 0.002 ^^ mg/dL | 0.65 ± 0.026 ^^ mg/dL | 51.25 ± 0.36 ^^ mg/dL | no differences in the hepatic or renal tissue structures | intact well-organized histological features of renal parenchyma | no inflammatory cell infiltrates | survived | No physical or abnormal changes were observed | 4.2 ± 0.1 nmol/mg protein and 4.2 ± 0.10 ^a*^,b* nmol/mg protein | – |
| COc1cccc2c1C(=O)c1c(O)c3c(c(O)c1C2=O)C[C@@](O)(C(=O)CO)C[C@@H]3O[C@H]1C[C@H](N)[C@H](O)[C@H](C)O1 [Doxorubicin, reference compound] | 0.8 ± 0.1 ^a* µmol/mg protein | – | 29.74% | 39% | 31.26% | 42.38% | – | – | 52.97 ± 0.92 *^,# U/L | 46.93 ± 0.30 *^,# U/L | 1.57 ± 0.02 *^,# mg/dL | 0.36 ± 0.026 *^,# mg/dL | 1.45 ± 0.072 mg/dL | 83.27 ± 0.95 *^,# mg/dL | hepatic and renal pathology were obvious | dilatation of the cortical tubular segments | hepatocellular necrotic changes | – | – | 1.7 ± 0.10 ^a* nmol/mg protein | MDA level in cell lysate (malonaldehyde (MDA); listed as Dox): 18.5 ± 1.5 µmol/mg protein; MDA level in cell lysate (malonaldehyde (MDA); listed as Positive): 18.5 ± 1.5 ^a* µmol/mg protein; uPA level in cell lysate ([1]; listed as Dox): 1244 ± 18 nmol/mg protein; uPA level in cell lysate ([1]; listed as Positive): 1244 ± 18 ^a* nmol/mg protein |
| CC(=O)Nc1cccc(C(=O)C=C2C(=O)Nc3ccc(S(=O)(=O)N4CCCCC4)cc32)c1 [Compound 4c, N-(3-(2-(2-oxo-5-(piperidin-1-ylsulfonyl)indolin-3-ylidene)acetyl)phenyl)acetamide] | 2.1 ± 0.3 ^b* µmol/mg protein | 14.5 ± 1.4 µmol/mg protein | 36.44% | 37.62% | 25.94% | 32.02% | 5.30 fold | 1729 ± 38 nmol/mg protein and 1729 ± 38 ^a*^,b* nmol/mg protein | 28.41 ± 0.28 ^^ U/L | 37.35 ± 1.47 ^^ U/L | 0.79 ± 0.04 ^^ mg/dL | 0.16 ± 0.007 ^^ mg/dL | 0.73 ± 0.014 ^^ mg/dL | 55.76 ± 5.64 ^^ mg/dL | no differences in the hepatic or renal tissue structures | almost intact well-organized morphological features | almost intact histological features of hepatic parenchyma | survived | No physical or abnormal changes were observed | 3.6 ± 0.11 nmol/mg protein and 3.6 ± 0.11 ^a*^,b* nmol/mg protein | – |
| CC(=O)Nc1ccc(C(=O)C=C2C(=O)Nc3ccc(S(=O)(=O)N4CCCCC4)cc32)cc1 [Compound 4b, N-(4-(2-(2-oxo-5-(piperidin-1-ylsulfonyl)indolin-3-ylidene)acetyl)phenyl)acetamide] | 1.1 ± 0.7 µmol/mg protein | 3.7 ± 0.4 µmol/mg protein and 3.7 ± 0.4 ^a*^,b* µmol/mg protein | 41.25% | 5.49% | 53.26% | 28.14% | – | 1916 ± 40 nmol/mg protein and 1916 ± 40 ^a*^,b* nmol/mg protein | 27.95 ± 0.34 ^^ U/L | 35.18 ± 0.47 ^^ U/L | 0.88 ± 0.06 ^^ mg/dL | 0.17 ± 0.001 ^^ mg/dL | 0.70 ± 0.013 ^^ mg/dL | 62.60 ± 3.64 ^^ mg/dL | no differences in the hepatic or renal tissue structures | almost intact histological features of renal parenchyma | apparently intact hepatocytes | survived | No physical or abnormal changes were observed | 2.5 ± 0.04 nmol/mg protein and 2.5 ± 0.04 ^a,b* nmol/mg protein | – |
